Measured values as given in patent publication EP2818472A1, “Imidazo[4,5-c]pyridine and pyrrolo[3,2-c]pyridine compounds as G-protein-coupled receptor kinase 5 (GRK5) modulators” (Max-Planck-Gesellschaft zur Förderung der Wissenschaften …, priority 2013, dated 2014).

The molecules below were run on beta-TC6 cells (assay: Insulin HTRF assay (relative activity Ar) in beta-TC6 cells). Settings: Mus musculus, Beta-TC6, 4 h, insulin HTRF, supernatant of beta-TC6 cells, incubation with test compound at 37°C for 2, 3, 4h; read-out: Ar (relative activity).
Format: cell-based, mouse
Procedure, shortened: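 beta-TC6 cells (15k/well, seeded 24 or 48 h) washed, then exposed to compound in induction buffer (0.5% DMSO final) for 2, 3 or 4 h at 37°C.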

Compound	Emax
COc1ccc(Nc2nccc3[nH]c(-c4ccc(C)cc4)nc23)cc1 [Compound 382, N-(4-methoxyphenyl)-2-(p-tolyl)-1H-imidazo[4,5-c]pyridin-4-amine]	30 to 50%
CNc1nc2cnc(-c3cccc(NS(C)(=O)=O)c3)cc2n1-c1cccc(F)c1 [Compound 768, N-[3-[1-(3-fluorophenyl)-2-(methylamino)imidazo[4,5-c]pyridin-6-yl]phenyl]methanesulfonamide]	0 to 30%
Cc1cccc(CNc2nc3cnc(-c4ccc(S(C)(=O)=O)cc4)cc3n2C)c1 [Compound 806, 1-methyl-6-(4-methylsulfonylphenyl)-N-(m-tolylmethyl)imidazo[4,5-c]pyridin-2-amine]	30 to 50%
CNc1nc2cnc(-c3ccc4c(c3)OCO4)cc2n1Cc1ccccc1 [Compound 791, 6-(1,3-benzodioxol-5-yl)-1-benzyl-N-methyl-imidazo[4,5-c]pyridin-2-amine]	0 to 30%
c1ccc(Nc2cc3[nH]c(-c4cn[nH]c4)cc3cn2)nc1 [Compound 115, 2-(1H-pyrazol-4-yl)-N-(2-pyridyl)-1H-pyrrolo[3,2-c]pyridin-6-amine]	> 100%
COc1ccccc1-c1cc2c(Nc3ccc(S(C)(=O)=O)cc3)nccc2[nH]1 [Compound 300, 2-(2-methoxyphenyl)-N-(4-methylsulfonylphenyl)-1H-pyrrolo[3,2-c]pyridin-4-amine]	50 to 100%
CNc1nc2cnc(-c3ccc(OC)cc3)cc2n1Cc1ccc(OC)c(OC)c1 [Compound 672, 1-[(3,4-dimethoxyphenyl)methyl]-6-(4-methoxyphenyl)-N-methyl-imidazo[4,5-c]pyridin-2-amine]	30 to 50%
CN(C)C(=O)c1ccc(-c2cc3cnc(Nc4cccc(O)c4)cc3n2C)cc1 [Compound 53, 4-[6-(3-hydroxyanilino)-1-methyl-pyrrolo[3,2-c]pyridin-2-yl]-N,N-dimethyl-benzamide]	50 to 100%
Cn1c(-c2ccsc2)cc2c(Nc3ccncc3)nccc21 [Compound 278, 1-methyl-N-(4-pyridyl)-2-(3-thienyl)pyrrolo[3,2-c]pyridin-4-amine]	50 to 100%
CN1CCN(c2ccc(Nc3nccc4[nH]c(-c5cccnc5)cc34)cc2)CC1 [Compound 235, N-[4-(4-methylpiperazin-1-yl)phenyl]-2-(3-pyridyl)-1H-pyrrolo[3,2-c]pyridin-4-amine]	50 to 100%
COc1ccc(Nc2cc3c(cn2)ncn3Cc2ccco2)cc1 [Compound 693, 1-(2-furylmethyl)-N-(4-methoxyphenyl)imidazo[4,5-c]pyridin-6-amine]	50 to 100%
CS(=O)(=O)c1ccc(Nc2nccc3[nH]c(-c4cccc(C(F)(F)F)c4)cc23)cc1 [Compound 197, N-(4-methylsulfonylphenyl)-2-[3-(trifluoromethyl)phenyl]-1H-pyrrolo[3,2-c]pyridin-4-amine]	30 to 50%
COc1ccc(CNc2nc3cnc(Nc4ccc(NC(C)=O)cc4)cc3n2C)cc1OC [Compound 600, N-[4-[[2-[(3,4-dimethoxyphenyl)methylamino]-1-methyl-imidazo[4,5-c]pyridin-6-yl]amino]phenyl]acetamide]	50 to 100%
CNc1nc2cnc(-c3ccccc3)cc2n1Cc1ccc(OC)c(OC)c1 [Compound 669, 1-[(3,4-dimethoxyphenyl)methyl]-N-methyl-6-phenyl-imidazo[4,5-c]pyridin-2-amine]	30 to 50%
Cn1c(-c2cccnc2)cc2cnc(Nc3ccc(F)cc3)cc21 [Compound 92, N-(4-fluorophenyl)-1-methyl-2-(3-pyridyl)pyrrolo[3,2-c]pyridin-6-amine]	0 to 30%
Cc1cccc(-c2nc3c(Nc4cccc(O)c4)nccc3[nH]2)c1 [Compound 438, 3-[[2-(m-tolyl)-1H-imidazo[4,5-c]pyridin-4-yl]amino]phenol]	30 to 50%

Compound	Emax
Cn1c(NCC2CC2)nc2cnc(Nc3ccc4c(c3)OCO4)cc21 [Compound 598, N6-(1,3-benzodioxol-5-yl)-N2-(cyclopropylmethyl)-1-methyl-imidazo[4,5-c]pyridine-2,6-diamine]	30 to 50%
Cn1c(-c2cccnc2)cc2cnc(Nc3ccc4c(c3)OCCO4)cc21 [Compound 84, N-(2,3-dihydro-1,4-benzodioxin-6-yl)-1-methyl-2-(3-pyridyl)pyrrolo[3,2-c]pyridin-6-amine]	50 to 100%
CNc1nc2cnc(-c3ccc(CO)cc3)cc2n1C [Compound 830, [4-[1-methyl-2-(methylamino)imidazo[4,5-c]pyridin-6-yl]phenyl]methanol]	30 to 50%
CC(C)c1cccc(Nc2nccc3c2cc(-c2ccc(C(=O)N(C)C)cc2)n3C)c1 [Compound 224, 4-[4-(3-isopropylanilino)-1-methyl-pyrrolo[3,2-c]pyridin-2-yl]-N,N-dimethyl-benzamide]	0 to 30%
Cn1cc(-c2cc3cnc(N4CCOCC4)cc3n2Cc2ccccc2)cn1 [Compound 155, 4-[1-benzyl-2-(1-methylpyrazol-4-yl)pyrrolo[3,2-c]pyridin-6-yl]morpholine]	50 to 100%
Cn1cc(-c2cc3cnc(Nc4ccc(F)cc4)cc3n2C)cn1 [Compound 138, N-(4-fluorophenyl)-1-methyl-2-(1-methylpyrazol-4-yl)pyrrolo[3,2-c]pyridin-6-amine]	50 to 100%
CN(C)C(=O)c1ccc(-c2cc3c(Nc4ccc5c(c4)OCCO5)nccc3n2C)cc1 [Compound 214, 4-[4-(2,3-dihydro-1,4-benzodioxin-6-ylamino)-1-methyl-pyrrolo[3,2-c]pyridin-2-yl]-N,N-dimethyl-benzamide]	50 to 100%
COc1ccc(OC)c(CCNc2nc3cnc(-c4ccsc4)cc3n2C)c1 [Compound 592, N-[2-(2,5-dimethoxyphenyl)ethyl]-1-methyl-6-(3-thienyl)imidazo[4,5-c]pyridin-2-amine]	50 to 100%
CNc1nc2cnc(-c3ccc(O)c(OC)c3)cc2n1C [Compound 612, 2-methoxy-4-[1-methyl-2-(methylamino)imidazo[4,5-c]pyridin-6-yl]phenol]	50 to 100%
COc1ccc(Nc2nccc3[nH]c(-c4cccc(OC(F)(F)F)c4)nc23)cc1O [Compound 444, 2-methoxy-5-[[2-[3-(trifluoromethoxy)phenyl]-1H-imidazo[4,5-c]pyridin-4-yl]amino]phenol]	30 to 50%
COc1cccc(-c2nc3c(Nc4cc(OC)c(OC)c(OC)c4)nccc3[nH]2)c1 [Compound 367, 2-(3-methoxyphenyl)-N-(3,4,5-trimethoxyphenyl)-1H-imidazo[4,5-c]pyridin-4-amine]	30 to 50%
CNc1nc2cnc(Nc3cccc(C)c3)cc2n1Cc1ccccc1 [Compound 530, 1-benzyl-N2-methyl-N6-(m-tolyl)imidazo[4,5-c]pyridine-2,6-diamine]	30 to 50%
COc1ccc(Nc2cc3c(cn2)nc(Nc2ccccc2)n3C)cc1OC [Compound 632, N6-(3,4-dimethoxyphenyl)-1-methyl-N2-phenyl-imidazo[4,5-c]pyridine-2,6-diamine]	50 to 100%
Cn1c(NCC2CC2)nc2cnc(-c3ccc(N4CCNCC4)cc3)cc21 [Compound 597, N-(cyclopropylmethyl)-1-methyl-6-(4-piperazin-1-ylphenyl)imidazo[4,5-c]pyridin-2-amine]	50 to 100%
COc1ccc(Nc2cc3[nH]c(-c4ccccn4)cc3cn2)cc1 [Compound 65, N-(4-methoxyphenyl)-2-(2-pyridyl)-1H-pyrrolo[3,2-c]pyridin-6-amine]	> 100%
